Values of other authors, collected in patent US20230310464A1, “USE OF C[…] THE TREATMENT OF SEIZURES ASSOCIATED WITH RARE […] SYNDROMES RELATED TO BRAIN INJURY” (GW Research Limited, priority 2020, published 2023).

Tests used:
[1] = system: HI injury in an animal model of NHIE; settings: CBD combined with therapeutic hypothermia, GB 2504263; cited from earlier work
[2] = system: seizures in patients with Lennox Gastaut syndrome; settings: 100% CBD, half also with HIE, Morales et al.; cited from earlier work

SMILES: C=C(C)[C@@H]1CCC(C)=C[C@H]1c1c(O)cc(CCCCC)cc1O [CBD, cannabidiol]
- neuroprotection following HI injury (in words) [1]: synergistic in neuroprotection
- effect on seizures in LGS patients (in words) [2]: a reduction in seizures was obtained
